Measurements: the CheMixHub viscosity set
± gives the uncertainty stated by the source.

Assay: xn = mol fraction of the nth substance listed

BrC1CCCCC1 + CC(C)CO
viscosity [mPa·s], 101.33 kPa
Conditions	x1 = 0.0998	x1 = 0.2024	x1 = 0.3028	x1 = 0.3991	x1 = 0.4983	x1 = 0.5946	x1 = 0.7011	x1 = 0.8014	x1 = 0.9015
298.15 K	2.871 ± 0.022	2.496 ± 0.02	2.252 ± 0.018	2.095 ± 0.017	1.981 ± 0.017	1.915 ± 0.016	1.878 ± 0.016	1.877 ± 0.016	1.915 ± 0.017
313.15 K	1.846 ± 0.015	1.656 ± 0.013	1.539 ± 0.013	1.47 ± 0.012	1.42 ± 0.012	1.401 ± 0.012	1.399 ± 0.012	1.419 ± 0.013	1.465 ± 0.013

Nc1ccccc1Cl + Cc1ccc(Cl)cc1
viscosity [mPa·s], 101 kPa
Conditions	x1 = 0.1012	x1 = 0.2102	x1 = 0.3125	x1 = 0.4056	x1 = 0.5142	x1 = 0.6125	x1 = 0.6952	x1 = 0.7859	x1 = 0.8859
303.15 K	0.9617 ± 0.024	1.175 ± 0.029	1.405 ± 0.034	1.644 ± 0.039	1.963 ± 0.046	2.287 ± 0.053	2.586 ± 0.059	2.936 ± 0.067	3.344 ± 0.076
308.15 K	0.8921 ± 0.023	1.097 ± 0.027	1.318 ± 0.032	1.543 ± 0.037	1.833 ± 0.043	2.12 ± 0.049	2.377 ± 0.055	2.674 ± 0.061	3.014 ± 0.069
313.15 K	0.8377 ± 0.022	1.031 ± 0.026	1.238 ± 0.03	1.446 ± 0.034	1.711 ± 0.04	1.968 ± 0.046	2.195 ± 0.051	2.451 ± 0.056	2.737 ± 0.063
318.15 K	0.7836 ± 0.021	0.9716 ± 0.024	1.17 ± 0.029	1.368 ± 0.033	1.616 ± 0.038	1.852 ± 0.043	2.054 ± 0.048	2.275 ± 0.053	2.511 ± 0.058

Cc1cccc(C)c1 + CO
293.15 K, 101 kPa
Conditions	viscosity [mPa·s]
x2 = 0.2	0.622 ± 0.012
x2 = 0.4	0.626 ± 0.013
x2 = 0.5	0.646 ± 0.013
x2 = 0.6	0.662 ± 0.013
x2 = 0.7	0.654 ± 0.013
x2 = 0.8	0.641 ± 0.013

Cc1ccc(O)cc1 + Cc1cccc(O)c1
Conditions	viscosity [mPa·s]
298.15 K, 101 kPa, x2 = 0.1388	14.5 ± 0.23
298.15 K, 101 kPa, x2 = 0.2461	14.32 ± 0.23
298.15 K, 101 kPa, x2 = 0.3003	14.25 ± 0.23
298.15 K, 101 kPa, x2 = 0.452	14 ± 0.22
298.15 K, 101 kPa, x2 = 0.4823	13.93 ± 0.22
298.15 K, 101 kPa, x2 = 0.5521	13.85 ± 0.22
298.15 K, 101 kPa, x2 = 0.6238	13.73 ± 0.22
298.15 K, 101 kPa, x2 = 0.6733	13.69 ± 0.22
298.15 K, 101 kPa, x2 = 0.7071	13.61 ± 0.21
298.15 K, 101 kPa, x2 = 0.7373	13.6 ± 0.21
298.15 K, 101 kPa, x2 = 0.8267	13.52 ± 0.21
298.15 K, 101 kPa, x2 = 0.9135	13.46 ± 0.21
313.15 K, 101.3 kPa, x2 = 0.1	6.798 ± 0.13
313.15 K, 101.3 kPa, x2 = 0.2	6.861 ± 0.092
313.15 K, 101.3 kPa, x2 = 0.3	6.878 ± 0.083
313.15 K, 101.3 kPa, x2 = 0.4	6.855 ± 0.1
313.15 K, 101.3 kPa, x2 = 0.5	6.75 ± 0.14
313.15 K, 101.3 kPa, x2 = 0.6	6.625 ± 0.13
313.15 K, 101.3 kPa, x2 = 0.7	6.547 ± 0.13
313.15 K, 101.3 kPa, x2 = 0.8	6.409 ± 0.14
313.15 K, 101.3 kPa, x2 = 0.9	6.321 ± 0.11
323.15 K, 101.3 kPa, x2 = 0.1	4.564 ± 0.1
323.15 K, 101.3 kPa, x2 = 0.2	4.653 ± 0.073
323.15 K, 101.3 kPa, x2 = 0.3	4.653 ± 0.06
323.15 K, 101.3 kPa, x2 = 0.4	4.618 ± 0.08
323.15 K, 101.3 kPa, x2 = 0.5	4.54 ± 0.11
323.15 K, 101.3 kPa, x2 = 0.6	4.439 ± 0.12
323.15 K, 101.3 kPa, x2 = 0.7	4.337 ± 0.11
323.15 K, 101.3 kPa, x2 = 0.8	4.246 ± 0.096
323.15 K, 101.3 kPa, x2 = 0.9	4.175 ± 0.085

Nc1ccccc1Cl + CC(C)(C)O
viscosity [mPa·s], 101 kPa
Conditions	x1 = 0.0902	x1 = 0.1802	x1 = 0.3025	x1 = 0.4125	x1 = 0.5089	x1 = 0.6158	x1 = 0.7025	x1 = 0.8054	x1 = 0.9005
303.15 K	3.13 ± 0.68	3.28 ± 0.71	3.44 ± 0.75	3.57 ± 0.78	3.66 ± 0.8	3.73 ± 0.81	3.78 ± 0.82	3.82 ± 0.83	3.84 ± 0.83
308.15 K	2.89 ± 0.63	3.03 ± 0.66	3.16 ± 0.69	3.26 ± 0.71	3.33 ± 0.72	3.39 ± 0.74	3.43 ± 0.75	3.46 ± 0.75	3.46 ± 0.75
313.15 K	2.36 ± 0.51	2.52 ± 0.55	2.68 ± 0.58	2.79 ± 0.61	2.88 ± 0.63	2.98 ± 0.65	3.03 ± 0.66	3.09 ± 0.67	3.11 ± 0.68
318.15 K	1.97 ± 0.43	2.13 ± 0.46	2.3 ± 0.5	2.42 ± 0.53	2.52 ± 0.55	2.62 ± 0.57	2.7 ± 0.59	2.77 ± 0.6	2.8 ± 0.61

Cc1cccc(C)c1 + COCCO
viscosity [mPa·s], 101 kPa
Conditions	298.15 K	308.15 K
x2 = 0.0519	0.598 ± 0.011	0.513 ± 0.01
x2 = 0.1498	0.635 ± 0.011	0.543 ± 0.01
x2 = 0.2504	0.681 ± 0.012	0.58 ± 0.011
x2 = 0.3476	0.737 ± 0.013	0.624 ± 0.011
x2 = 0.452	0.81 ± 0.014	0.68 ± 0.012
x2 = 0.4991	0.848 ± 0.014	0.709 ± 0.013
x2 = 0.5538	0.897 ± 0.015	0.746 ± 0.013
x2 = 0.6476	0.996 ± 0.017	0.819 ± 0.014
x2 = 0.7504	1.127 ± 0.019	0.915 ± 0.016
x2 = 0.8491	1.282 ± 0.021	1.026 ± 0.017
x2 = 0.9558	1.491 ± 0.024	1.172 ± 0.02

Cc1cccc(C)c1 + C1CCCCC1
101 kPa
Conditions	viscosity [mPa·s]
303 K, x1 = 0.1017	0.7217 ± 0.0051
303 K, x1 = 0.2009	0.6601 ± 0.0048
303 K, x1 = 0.3085	0.6191 ± 0.0046
303 K, x1 = 0.4005	0.5943 ± 0.0045
303 K, x1 = 0.503	0.5759 ± 0.0045
303 K, x1 = 0.5848	0.5648 ± 0.0044
303 K, x1 = 0.7009	0.552 ± 0.0044
303 K, x1 = 0.8041	0.5484 ± 0.0045
303 K, x1 = 0.9025	0.5445 ± 0.0045
308.15 K, x2 = 0.0628	0.516 ± 0.0094
308.15 K, x2 = 0.1619	0.5217 ± 0.0094
308.15 K, x2 = 0.2398	0.522 ± 0.0095
308.15 K, x2 = 0.3421	0.5304 ± 0.0096
308.15 K, x2 = 0.4497	0.5417 ± 0.0097
308.15 K, x2 = 0.5501	0.5626 ± 0.01
308.15 K, x2 = 0.6692	0.587 ± 0.01
308.15 K, x2 = 0.7673	0.6144 ± 0.011
308.15 K, x2 = 0.8649	0.6595 ± 0.011
308.15 K, x2 = 0.9489	0.7148 ± 0.012
313 K, x1 = 0.1017	0.6251 ± 0.0045
313 K, x1 = 0.2009	0.5799 ± 0.0043
313 K, x1 = 0.3085	0.548 ± 0.0041
313 K, x1 = 0.4005	0.5296 ± 0.0041
313 K, x1 = 0.503	0.5178 ± 0.0041
313 K, x1 = 0.5848	0.508 ± 0.0041
313 K, x1 = 0.7009	0.5009 ± 0.0041
313 K, x1 = 0.8041	0.493 ± 0.0041
313 K, x1 = 0.9025	0.492 ± 0.0042
313.15 K, x2 = 0.0628	0.4892 ± 0.009
313.15 K, x2 = 0.1619	0.4949 ± 0.0091
313.15 K, x2 = 0.2398	0.4963 ± 0.0091
313.15 K, x2 = 0.3421	0.5022 ± 0.0092
313.15 K, x2 = 0.4497	0.5152 ± 0.0093
313.15 K, x2 = 0.5501	0.5304 ± 0.0096
313.15 K, x2 = 0.6692	0.5548 ± 0.0099
313.15 K, x2 = 0.7673	0.5837 ± 0.01
313.15 K, x2 = 0.8649	0.6213 ± 0.011
313.15 K, x2 = 0.9489	0.6685 ± 0.011
323 K, x1 = 0.1017	0.5481 ± 0.004
323 K, x1 = 0.2009	0.5125 ± 0.0039
323 K, x1 = 0.3085	0.4884 ± 0.0038
323 K, x1 = 0.4005	0.4736 ± 0.0037
323 K, x1 = 0.503	0.4625 ± 0.0037
323 K, x1 = 0.5848	0.4562 ± 0.0037
323 K, x1 = 0.7009	0.45 ± 0.0037
323 K, x1 = 0.8041	0.4466 ± 0.0038
323 K, x1 = 0.9025	0.4461 ± 0.0038

O=S1(=O)CCCC1 + CCCCOCCO
303.15 K, 101 kPa
Conditions	viscosity [mPa·s]
x1 = 0.0491	1.94 ± 0.022
x1 = 0.0999	1.87 ± 0.022
x1 = 0.2	2.002 ± 0.023
x1 = 0.2998	2.501 ± 0.029
x1 = 0.3503	2.882 ± 0.033
x1 = 0.3999	3.311 ± 0.038
x1 = 0.4495	3.777 ± 0.043
x1 = 0.4999	4.28 ± 0.049
x1 = 0.5997	5.339 ± 0.061
x1 = 0.7015	6.489 ± 0.073
x1 = 0.7991	7.639 ± 0.085
x1 = 0.8987	8.898 ± 0.099
x1 = 0.9504	9.535 ± 0.11

CCCCn1cc[n+](C)c1.F[B-](F)(F)F + CN1CCCC1=O
101 kPa
Conditions	viscosity [mPa·s]
298.15 K, x1 = 0.2779	9.05 ± 1.2
298.15 K, x1 = 0.957	86.3 ± 11
303.15 K, x1 = 0.2779	7.82 ± 1
303.15 K, x1 = 0.3423	9.48 ± 1.2
308.15 K, x1 = 0.4657	9.19 ± 1.2
